# According to patent publication US20120214862A1, “MODULATION OF FACTOR 7 EXPRESSION” (ISIS Pharmaceuticals, Inc., priority 2009, published 2012):
# In the oligonucleotide strings, read from the 5' end, every base follows the letter of its sugar. An asterisk marks phosphorothioate; unmarked linkages are phosphodiester. Other units and linkages are bracketed, terminal groups are in braces. A string of capitals states the bases alone. e = 2'-O-(2-methoxyethyl) (MOE); [5mC] = 5-methylcytosine; d = 2'-deoxy (DNA)
# System: human Factor 7 mRNA
# Assay: Antisense inhibition of human Factor 7 mRNA in HepB3 cells, lipofectin, 50 nM, real-time RT-PCR
# Type: cell-based
# Details: for % Inhibition (human Factor 7 mRNA): 50 nM, ~24 h
# In short: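 Percent inhibition, untreated cells as reference: derived from RNA collected about 24 hours post-transfection of 4,000-cell wells, with the human RTS 2927 primer probe set and adjustment for total RNA content (RIBOGREEN®).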
# [1] = HepB3 cells, lipofectin, 50 nM antisense oligonucleotide, approximately 24 hours, primer probe set RTS 2927, relative to untreated control
# [2] = Example 1, HepB3 cells, lipofectin, relative to untreated control cells
# [3] = HepB3 cells, gapmers targeted to nucleobases 11830 to 11869 of SEQ ID NO: 1 (Table 9)
# [4] = HepB3 cells, gapmers targeted to nucleobases 13760 to 13789 of SEQ ID NO: 1 (Table 10)
# [5] = Example 4, HepB3 cells, lipofectin, relative to untreated control
# [6] = HepB3 cells, gapmers (5-10-5, 3-14-3, 2-13-5 MOE) targeted to nucleobases 4868 to 4899 of SEQ ID NO: 1
substance,measurement,setting,value
422209 (antisense eA*eG*e[5mC]*dA*d[5mC]*dA*d[5mC]*dA*dT*dG*dG*dA*dG*dT*d[5mC]*dA*dG*e[5mC]*eA*eT) [compound 422209],% Inhibition (human Factor 7 mRNA),"Example 6 microwalk, nucleobases 15098 to 15122 of SEQ ID NO: 1, HepB3, lipofectin",47%
416556 (antisense eA*eT*eA*eG*e[5mC]*dT*dT*dT*dG*dA*dT*d[5mC]*d[5mC]*dA*dA*eT*eG*e[5mC]*eT*e[5mC]) [compound 416556],% Inhibition of human Factor 7 mRNA levels,[1],53%
416426 (antisense eA*eG*e[5mC]*e[5mC]*e[5mC]*dA*dA*dG*d[5mC]*dA*dG*dA*dA*dG*dG*e[5mC]*eA*eG*eA*eG) [compound 416426],% Inhibition of human Factor 7 mRNA levels,[1],34%
407928 (antisense e[5mC]*eT*eT*eG*eG*d[5mC]*dT*dG*dA*dA*dG*dG*dG*dA*dG*eG*eT*eA*eA*eG) [compound 407928],% Inhibition (human Factor 7 mRNA),[2],55%
407602 (antisense e[5mC]*eT*eG*e[5mC]*eA*dG*d[5mC]*d[5mC]*dA*dG*dG*d[5mC]*dA*dG*d[5mC]*e[5mC]*e[5mC]*eT*eG*eA) [compound 407602],% Inhibition (human Factor 7 mRNA),[2],81%
416492 (antisense eG*eG*eA*eT*e[5mC]*dA*dT*dT*d[5mC]*dT*dG*dG*d[5mC]*d[5mC]*d[5mC]*eT*eG*eA*eG*e[5mC]) [compound 416492],% Inhibition of human Factor 7 mRNA levels,[1],13%
422100 (antisense eG*eA*eG*eG*eA*dG*dA*d[5mC]*dA*dA*dT*dG*dG*dT*d[5mC]*eA*eG*eG*eG*e[5mC]) [compound 422100],% Inhibition of human Factor 7 mRNA levels,[3],59%
407598 (antisense e[5mC]*e[5mC]*eA*eT*eG*dA*dT*dG*dA*dA*dA*dT*d[5mC]*dT*d[5mC]*eT*eG*e[5mC]*eA*eG) [compound 407598],% Inhibition (human Factor 7 mRNA),[2],72%
422253 (antisense e[5mC]*e[5mC]*dG*d[5mC]*d[5mC]*dG*dG*d[5mC]*dT*d[5mC]*dT*dG*d[5mC]*dT*d[5mC]*eA*eT*e[5mC]*e[5mC]*e[5mC]) [compound 422253],% Inhibition of human Factor 7 mRNA levels,[4],61%
422274 (antisense eT*eT*dA*d[5mC]*dT*dG*dA*dG*d[5mC]*dG*d[5mC]*dG*dG*dA*dA*eG*eA*eA*eG*eG) [compound 422274],% Inhibition (human Factor 7 mRNA),[5],24%
416493 (antisense eT*e[5mC]*eT*eT*eG*dG*dG*dT*dG*dT*dG*dG*dA*dT*dG*eT*eA*eA*eA*eT) [compound 416493],% Inhibition of human Factor 7 mRNA levels,[1],0%
422247 (antisense eG*e[5mC]*dT*dG*dA*dG*dG*dA*dG*dA*d[5mC]*dA*dA*dT*dG*eG*eT*e[5mC]*eA*eG) [compound 422247],% Inhibition of human Factor 7 mRNA levels,[3],36%
422147 (antisense eG*eA*eG*e[5mC]*e[5mC]*d[5mC]*dG*dA*dG*dT*dT*d[5mC]*dT*dG*d[5mC]*eA*eG*eG*eA*eG) [compound 422147],% Inhibition of human Factor 7 mRNA levels,[6],64%
407898 (antisense e[5mC]*e[5mC]*eA*eG*e[5mC]*dA*dG*dA*dG*dA*dG*dT*dA*d[5mC]*d[5mC]*e[5mC]*e[5mC]*eT*e[5mC]*eG) [compound 407898],% Inhibition (human Factor 7 mRNA),[2],49%
422237 (antisense e[5mC]*eA*dA*dT*dG*dG*dT*d[5mC]*dA*dG*dG*dG*d[5mC]*dT*dG*eG*eT*eT*eT*eT) [compound 422237],% Inhibition of human Factor 7 mRNA levels,[3],50%
422193 (antisense eT*eG*eA*dG*d[5mC]*dG*d[5mC]*dG*dG*dA*dA*dG*dA*dA*dG*dG*dG*eA*e[5mC]*eG) [compound 422193],% Inhibition (human Factor 7 mRNA),[5],6%
416436 (antisense eA*e[5mC]*eT*eG*eG*dT*d[5mC]*d[5mC]*d[5mC]*d[5mC]*dA*dT*d[5mC]*dA*d[5mC]*eT*eG*eT*eA*eA) [compound 416436],% Inhibition of human Factor 7 mRNA levels,[1],27%
407901 (antisense eT*eG*eG*eT*eG*dT*dT*dG*dA*dT*d[5mC]*dA*dG*dG*dG*eT*e[5mC]*e[5mC]*e[5mC]*e[5mC]) [compound 407901],% Inhibition (human Factor 7 mRNA),[2],89%
407601 (antisense e[5mC]*eA*eG*e[5mC]*e[5mC]*d[5mC]*dT*dG*dA*dA*dG*d[5mC]*d[5mC]*d[5mC]*dA*eA*eG*e[5mC]*eA*eG) [compound 407601],% Inhibition (human Factor 7 mRNA),[2],52%
422300 (antisense eG*eA*dG*d[5mC]*d[5mC]*d[5mC]*dG*dA*dG*dT*dT*d[5mC]*dT*dG*d[5mC]*eA*eG*eG*eA*eG) [compound 422300],% Inhibition of human Factor 7 mRNA levels,[6],65%
416531 (antisense eA*eG*eA*eT*eG*dA*d[5mC]*d[5mC]*dA*dG*d[5mC]*dA*dG*dG*dA*eA*eG*e[5mC]*e[5mC]*eT) [compound 416531],% Inhibition of human Factor 7 mRNA levels,[1],19%
422110 (antisense eA*e[5mC]*e[5mC]*e[5mC]*eG*d[5mC]*d[5mC]*dG*dG*d[5mC]*dT*d[5mC]*dT*dG*d[5mC]*eT*e[5mC]*eA*eT*e[5mC]) [compound 422110],% Inhibition of human Factor 7 mRNA levels,[4],53%
422099 (antisense eA*eG*eG*eA*eG*dA*d[5mC]*dA*dA*dT*dG*dG*dT*d[5mC]*dA*eG*eG*eG*e[5mC]*eT) [compound 422099],% Inhibition of human Factor 7 mRNA levels,[3],48%
422203 (antisense e[5mC]*eA*eG*d[5mC]*d[5mC]*dT*dG*dA*dG*dG*d[5mC]*d[5mC]*dA*dG*d[5mC]*dA*dG*eA*eT*e[5mC]) [compound 422203],% Inhibition of human Factor 7 mRNA levels,"HepB3 cells, gapmers targeted to nucleobases 14707 to 14732 of SEQ ID NO: 1 (Table 11)",52%
407659 (antisense eG*eA*eT*eG*eG*d[5mC]*dA*dT*d[5mC]*dG*dA*dG*dT*d[5mC]*d[5mC]*eA*e[5mC]*eT*e[5mC]*eT) [compound 407659],% Inhibition (human Factor 7 mRNA),[2],55%
422249 (antisense eT*eG*dG*d[5mC]*dT*dG*dA*dG*dG*dA*dG*dA*d[5mC]*dA*dA*eT*eG*eG*eT*e[5mC]) [compound 422249],% Inhibition of human Factor 7 mRNA levels,[3],52%
422268 (antisense eA*eG*d[5mC]*dG*d[5mC]*dG*dG*dA*dA*dG*dA*dA*dG*dG*dG*eA*e[5mC]*eG*eG*eA) [compound 422268],% Inhibition (human Factor 7 mRNA),[5],63%
416483 (antisense eT*eG*eT*eG*eA*dG*dG*dG*dT*dT*d[5mC]*dA*dT*dT*dT*e[5mC]*eA*eG*eT*eG) [compound 416483],% Inhibition of human Factor 7 mRNA levels,[1],22%
407630 (antisense e[5mC]*eA*e[5mC]*eA*eT*dG*dG*dT*d[5mC]*dA*dG*dT*dG*dA*dG*eG*eA*e[5mC]*e[5mC]*eA) [compound 407630],% Inhibition (human Factor 7 mRNA),[2],29%
403090 (antisense eA*eG*eT*e[5mC]*e[5mC]*dT*dG*dG*dG*dT*d[5mC]*dA*dT*d[5mC]*dA*eG*e[5mC]*e[5mC]*eG*eG) [compound 403090],% Inhibition (human Factor 7 mRNA),[2],69%
422143 (antisense e[5mC]*e[5mC]*eG*eA*eG*dT*dT*d[5mC]*dT*dG*d[5mC]*dA*dG*dG*dA*eG*e[5mC]*eG*eG*e[5mC]) [compound 422143],% Inhibition of human Factor 7 mRNA levels,[6],70%
407907 (antisense eA*eA*eT*eG*eA*dG*dA*dA*dG*d[5mC]*dG*d[5mC]*dA*d[5mC]*dG*eA*eA*eG*eG*e[5mC]) [compound 407907],% Inhibition (human Factor 7 mRNA),[2],35%
422246 (antisense e[5mC]*eT*dG*dA*dG*dG*dA*dG*dA*d[5mC]*dA*dA*dT*dG*dG*eT*e[5mC]*eA*eG*eG) [compound 422246],% Inhibition of human Factor 7 mRNA levels,[3],46%
416456 (antisense e[5mC]*eT*eG*e[5mC]*eG*d[5mC]*d[5mC]*dA*d[5mC]*d[5mC]*d[5mC]*dG*d[5mC]*d[5mC]*dG*eG*e[5mC]*eT*e[5mC]*eT) [compound 416456],% Inhibition of human Factor 7 mRNA levels,[1],58%
same,% Inhibition of human Factor 7 mRNA levels,[4],50%
407618 (antisense eG*eT*eA*eT*eT*dT*dT*dT*d[5mC]*d[5mC]*dA*d[5mC]*dA*dT*dG*eG*eA*eT*eA*eT) [compound 407618],% Inhibition (human Factor 7 mRNA),[2],42%
416451 (antisense eG*e[5mC]*e[5mC]*eA*eT*dG*dG*dA*d[5mC]*dA*d[5mC]*dT*d[5mC]*d[5mC]*d[5mC]*e[5mC]*eT*eT*eT*eG) [compound 416451],% Inhibition of human Factor 7 mRNA levels,[1],75%
407610 (antisense eA*eG*eG*eG*eA*dG*dG*d[5mC]*dA*dG*dA*dA*dG*d[5mC]*dA*eG*eA*eT*eA*eT) [compound 407610],% Inhibition (human Factor 7 mRNA),[2],31%
422231 (antisense eT*e[5mC]*dA*dG*dG*dG*d[5mC]*dT*dG*dG*dT*dT*dT*dT*dG*eG*eA*eG*eG*eA) [compound 422231],% Inhibition of human Factor 7 mRNA levels,[3],22%
407608 (antisense eT*eA*eT*eA*eG*dG*dA*d[5mC]*dT*dG*dG*dA*dG*d[5mC]*dT*eG*eG*eT*e[5mC]*e[5mC]) [compound 407608],% Inhibition (human Factor 7 mRNA),[2],13%
407918 (antisense e[5mC]*e[5mC]*eT*eG*eG*dT*dG*dT*dA*d[5mC]*dA*d[5mC]*d[5mC]*d[5mC]*d[5mC]*eA*eA*eA*eG*eT) [compound 407918],% Inhibition (human Factor 7 mRNA),[2],72%
422267 (antisense eG*e[5mC]*dG*d[5mC]*dG*dG*dA*dA*dG*dA*dA*dG*dG*dG*dA*e[5mC]*eG*eG*eA*eA) [compound 422267],% Inhibition (human Factor 7 mRNA),[5],38%
422095 (antisense eA*e[5mC]*eA*eA*eT*dG*dG*dT*d[5mC]*dA*dG*dG*dG*d[5mC]*dT*eG*eG*eT*eT*eT) [compound 422095],% Inhibition of human Factor 7 mRNA levels,[3],60%
422156 (antisense eG*eG*eT*d[5mC]*dA*dG*dG*dG*d[5mC]*dT*dG*dG*dT*dT*dT*dT*dG*eG*eA*eG) [compound 422156],% Inhibition of human Factor 7 mRNA levels,[3],38%
